{"source": "paper PMC8391236", "about": "“Effect of Pterostilbene, a Natural Derivative of Resveratrol, in the Treatment of Colorectal Cancer through Top1/Tdp1-Mediated DNA Repair Pathway” (Cancers, 2021)", "key": {"[1]": {"test_system": "HCoEpiC-", "assay": "Proliferation of non-tumor cells (CCK-8)", "format": "cell-based", "procedure": "(§1) The final concentration of DMSO was less than 0.1%, and 0.1% DMSO as negative control. CPT, as Top1 inhibitor, was diluted to 0.5 μM [36, 37], and FM, as Tdp1 inhibitor was diluted to 25 μM [38]. Exponentially growing cells were seeded in 96-well plates (5 × 10^3 cells/well) for 12 h. Various drugs were added separately and incubated for 24, 48, and 72 h. Cell viability was determined by CCK-8 (Beyotime Biotechnology, Shanghai, China) assay. […]\n(§2) The drug concentration required for inhibiting cell proliferation by 50% (IC50) was determined by interpolation from dose-response curves."}, "[2]": {"test_system": "L02", "assay": "Proliferation of non-tumor cells (CCK-8)", "format": "cell-based", "conditions": "Homo sapiens", "procedure": "as §1, §2"}, "[3]": {"test_system": "Tdp1-over CL187 cells", "assay": "Apoptosis by flow cytometry", "format": "cell-based, Human", "conditions": "48 h", "procedure": "(§3) Exponentially growing CL187 cells were seeded in 6-well plates (1.2 × 10^6 cells/well) until a well was filled with cells. The RE or PTE at various concentrations were added separately into plate wells and incubated with cells for 48 h. The incubated cells were collected and treated by Annexin V-FITC/PI Apoptosis Detection Kit. The stained cells were analyzed with a flow cytometer (Becton-Dickinson, Franklin Lakes, NJ, USA), and data analyses were performed with BD Cell Quest^TM pro 6.0.."}, "[4]": {"test_system": "siRNA-Tdp1 CL187 cells", "assay": "Apoptosis by flow cytometry", "format": "cell-based, Human", "conditions": "48 h", "procedure": "as §3"}, "[5]": {"test_system": "siRNA-Top1 CL187 cells", "assay": "Apoptosis by flow cytometry", "format": "cell-based, Human", "conditions": "48 h", "procedure": "as §3"}, "[6]": {"target": "T1, Top1 (Homo sapiens, UniProt P11387)", "T1 construct": "purchased TopoGEN, Buena Vista, CO, USA", "T1 sequence (P11387 1-765)": "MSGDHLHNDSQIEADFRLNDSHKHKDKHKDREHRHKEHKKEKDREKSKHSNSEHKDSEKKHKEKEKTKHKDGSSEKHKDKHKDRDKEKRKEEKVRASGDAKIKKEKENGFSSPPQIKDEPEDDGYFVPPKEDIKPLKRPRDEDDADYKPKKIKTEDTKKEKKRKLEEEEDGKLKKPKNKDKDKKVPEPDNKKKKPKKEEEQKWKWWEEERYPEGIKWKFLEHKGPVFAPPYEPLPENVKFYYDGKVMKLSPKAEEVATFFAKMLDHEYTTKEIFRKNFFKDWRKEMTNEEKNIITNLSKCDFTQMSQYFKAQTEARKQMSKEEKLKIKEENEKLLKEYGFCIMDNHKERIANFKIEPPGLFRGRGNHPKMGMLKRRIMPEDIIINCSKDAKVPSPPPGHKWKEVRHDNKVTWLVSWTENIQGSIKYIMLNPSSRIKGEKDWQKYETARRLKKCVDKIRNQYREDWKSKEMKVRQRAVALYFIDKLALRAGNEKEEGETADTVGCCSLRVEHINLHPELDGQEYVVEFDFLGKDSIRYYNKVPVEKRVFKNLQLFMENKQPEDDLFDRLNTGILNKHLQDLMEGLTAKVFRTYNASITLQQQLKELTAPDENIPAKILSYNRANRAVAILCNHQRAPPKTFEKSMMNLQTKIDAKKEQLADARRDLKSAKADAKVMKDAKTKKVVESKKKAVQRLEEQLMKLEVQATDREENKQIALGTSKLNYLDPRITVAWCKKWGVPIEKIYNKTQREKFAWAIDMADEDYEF", "assay": "Direct Top1 enzyme activity (DNA relaxation) assay", "format": "biochemical", "conditions": "gel electrophoresis", "procedure": "Different concentrations of the drug solution were prepared. The solvent was used as negative control group, and CPT (50 μM) was used as the positive control group. Each sample included 2 units of Top1 (TopoGEN, Buena Vista, CO, USA) and 250 ng super helical DNA (pHOT-1, TopoGEN, Buena Vista, CO, USA). The samples were incubated for 30 min at 37 °C, and then the reaction was stopped with SDS. After digestion with proteinase K (50 μg/mL, 60 min at 37 °C), samples were separated through electrophoresis (1% agarose gel). The electrophoresis was conducted at 180 V constant pressure for 20 min. The gel was immersed in the dye without EB for 30 min, and the images were collected by gel imaging system (Tanon-1600B, Shanghai, China)."}, "[7]": {"test_system": "Top1 in CL187 cells", "assay": "Intracellular Top1 enzyme activity assay", "format": "cell-based, Human", "conditions": "CL187 cells treated 6 h", "procedure": "CL187 cells were treated with different concentrations of drugs for 6 h. The supernatant was discarded, and the cells were collected. The extracts of cytoplasm, mitochondria, and nucleus were obtained by the same method as described in Section 2.4.7. The protein concentration of each extract was detected by BCA kit. Enzyme activity reaction was carried out by using 125 ng super helical DNA (pHOT-1) and cell extract. The protein concentration of the extract was guaranteed to be the same in each group. The mixture solution of the pHOT-1 and the cell extract was added into the reaction buffer and incubated for 30 min at 37 °C. The reaction was terminated with loading buffer. The agarose gel electrophoresis was performed, and the images were collected."}, "[8]": {"test_system": "P53", "assay": "Western blot for P53", "format": "cell-based, Human", "conditions": "CL187 cells, 12 h", "procedure": "CL187 cells were treated with RE or PTE for 6 or 12 h, collected, and placed into lysis buffer (KeyGEN BioTECH, Nanjing, China). The total protein content in the cell lysates was measured using a BCA kit. Equivalent amount of total protein (30 μg) was loaded onto 10% SDS-PAGE gel. Electrophoresis was performed at 80 V for 25 min. After the sample went through concentrated gel, the voltage was adjusted to 120 V. Electrophoresis was stopped when the bromophenol blue band approached the bottom of the gel. After being transferred to PVDF membranes, the samples were incubated separately with 3 types of primary antibodies Top1, Tdp1, and P53 rabbit mAb (CST, Boston, MA, USA), followed by the incubation with secondary antibody goat anti-rabbit IgG (HRP)-conjugated (1:3000). ECL kit (New Cell and Molecular Biotech, Suzhou, China) was used for color development, and the images were collected by the gel imaging system (Tanon-5200, Shanghai, China)."}, "[9]": {"test_system": "siRNA-Top1 CL187 cells", "assay": "Cell viability of Top1-silenced cells", "format": "cell-based", "conditions": "Homo sapiens, 36 h, siRNA-Top1 CL187, 36 h"}}, "data": [{"smiles": "COc1cc(/C=C/c2ccc(O)cc2)cc(OC)c1", "note": "[PTE, 3,5-dimethoxy-4′-hydroxy-trans-stilbene]", "values": [{"measurement": "IC50", "setting": "[1]; 24 h", "result": 444, "unit": "µM"}, {"measurement": "IC50", "setting": "[1]; 48 h", "result": 250, "unit": "µM"}, {"measurement": "IC50", "setting": "[1]; 72 h", "result": 83.4, "unit": "µM"}, {"measurement": "IC50", "setting": "[2]; L02, 24 h", "result": 478, "unit": "µM"}, {"measurement": "IC50", "setting": "[2]; L02, 48 h", "result": 248, "unit": "µM"}, {"measurement": "IC50", "setting": "[2]; L02, 72 h", "result": 148, "unit": "µM"}, {"measurement": "cell apoptotic proportion", "setting": "[3]; Tdp1-over CL187, 10 μM", "result": 26.80, "unit": "%"}, {"measurement": "cell apoptotic proportion", "setting": "[3]; Tdp1-over CL187, 20 μM", "result": 31.81, "unit": "%"}, {"measurement": "cell apoptotic proportion", "setting": "[3]; Tdp1-over CL187, 50 μM", "result": 32.87, "unit": "%"}, {"measurement": "cell apoptotic proportion", "setting": "[4]; siRNA-Tdp1 CL187, 10 μM", "result": 18.16, "unit": "%"}, {"measurement": "cell apoptotic proportion", "setting": "[4]; siRNA-Tdp1 CL187, 20 μM", "result": 20.92, "unit": "%"}, {"measurement": "cell apoptotic proportion", "setting": "[4]; siRNA-Tdp1 CL187, 50 μM", "result": 24.38, "unit": "%"}, {"measurement": "cell apoptotic proportion", "setting": "[5]; siRNA-Top1 CL187, 10 μM", "result": 25.29, "unit": "%"}, {"measurement": "cell apoptotic proportion", "setting": "[5]; siRNA-Top1 CL187, 20 μM", "result": 29.42, "unit": "%"}, {"measurement": "cell apoptotic proportion", "setting": "[5]; siRNA-Top1 CL187, 50 μM", "result": 33.93, "unit": "%"}, {"measurement": "inhibition of Top1 enzyme activity (SC DNA relaxation)", "setting": "[6]; 30 min incubation, CPT at 50 uM", "result": "had the ability to inhibit Top1 enzyme activity in a dose-dependent manner"}, {"measurement": "concentration exhibiting the same inhibitory effect on Top1 enzyme activity", "setting": "[6]; relaxation of supercoiled pHOT-1 DNA, 30 min", "result": 20, "unit": "µM"}, {"measurement": "concentration with the same inhibitory effect on intracellular Top1 enzyme activity", "setting": "[7]; cell extracts + SC DNA", "result": 20, "unit": "µM"}, {"measurement": "Top1 enzyme activity in mitochondria", "setting": "[7]; CPT at 50 μM", "result": "significantly inhibited"}, {"measurement": "expression of P53 (WB)", "setting": "[8]", "result": "promoted the expression of P53"}, {"measurement": "IC50", "setting": "[9]", "result": "49 ± 10.1", "unit": "µM"}]}]}
